Experimental data published in US20240287048A1, “SUBSTITUTED ACYL SULFONAMIDES FOR TREATING CANCER” (The Broad Institute, Inc., priority 2020, published 2024).

Tested on: Salmonella tester strain TA98
Test: Bacterial reverse gene mutation test Ames MPF Penta I, TA98
Assay type: cell-based
Description: The employed commercial assay Ames MPF Penta I comprises the histidine auxotrophic Salmonella tester strains TA98, TA100, TA1535, TA1537 and two tryptophan auxotrophic tester strains E. coli wp2 (E. coli wp2 [pKM101] and E. coli wp2 uvrA, combined exposure). These strains meet the requirements of the OECD guideline 471 for testing chemicals.
Bacterial strains were exposed to various concentrations of the test compounds in a histidine (His) or tryptophane (Trp) deficient medium. As recommended by ICH S2(R1) guideline, the test was conducted in two assay conditions, with and without addition of microsomal enzymes (S9 mix), taking the potential formation of DNA reactive metabolites via xenobiotic biotransformation into account.
The potential of the test compound to induce gene mutations is assessed by comparing the control with the test compounds treated bacterial cultures.

SMILES | Result of the bacterial reverse gene mutation test Ames MPF Penta I, TA98 (with addition of S9 mix) | Result of the bacterial reverse gene mutation test Ames MPF Penta I, TA98 (without addition of S9 mix)
O=C(NS(=O)(=O)c1ccccc1-c1ccccc1)c1cc2ccc(C3CC3)cc2o1 [Example 16, N-([1,1′-biphenyl]-2-sulfonyl)-6-cyclopropyl-1-benzofuran-2-carboxamide] | negative | negative
CCOc1ccccc1S(=O)(=O)NC(=O)c1cc2ccc(C(C)C)cc2o1 [Example 55, N-(2-Ethoxybenzenesulfonyl)-6-(propan-2-yl)-1-benzofuran-2-carboxamide] | negative | negative
